Results published in patent US20080319042A1, “Compositions and methods for treatment of liver disease” (priority 2007, published 2008).
Several values for one entry are separate records, joined by “and”; a condition that tells them apart may be missing. Equal values may be shown once.

How the values were obtained:
[1] = tested on: Marburg; format: cell-based; set-up: dose or concentration left out as unconfirmed; conditions: FIG. 4
[2] = tested on: HCV JFH1; test: HCV JFH1 infectivity assay (JFH1 Foci Reduction Assay); format: cell-based, hepatitis C virus; conditions: virus preincubated with compound; Huh 7 cells; 48 hr post infection; RD8, RD16, RD17, RD18 as glucosidase hydrolysis products
[3] = tested on: Hep G2 2.2.15 cells; test: Cytotoxicity Assay (MTT); format: cell-based, human
Procedure: Hep G2 2.2.15 cells (120 μl) were seeded onto 96-well plates at a concentration of 2×10^5 cells/mL. After incubation for 72 h, serial dilutions of the test samples were added to monolayer Hep G2 2.2.15 cells, and culture at 37° C. in a humidified atmosphere of 5% CO2 in air for an additional 9 days, and the medium with sample was changed every 3 days, 10 μL 10% aqueous DMSO was used as control group. After incubation, the supernatant was taken out and 90 μL of DMEM and 10 μL of the 5 mg/ml MTT (3-[4,5-dimethylthiazol-2-yl]-2,5-diphenyltetrazolium bromide) solution was then added to each well, and the plates were incubated for an additional 3 hours. The MTT was removed, and to each well was added 100 μl of DMSO. The plates were agitated on an orbital shaker at 50 rpm at room temperature for 5 min. The optical density of each sample was measured at 490 nm. The percent absorbance of the samples treated with the test material was compared to the untreated sample to calculate the percentage of control. Data are expressed as relative viability, with cytotoxicity indicated by <100% relative viability.

[4] = tested on: hepatitis B surface antigen (HBsAg) production; test: Anti-HBSAg Assay (Procedure A); format: cell-based, hepatitis B virus; conditions: 50 μg/ml
Procedure: (§1) The HBV-producing human hepatoblastoma cell line, Hep G2.2.15 was maintained in DMEM supplemented with 10% fetal bovine serum (FBS), 2 mM glutamine, 100 units/ml penicillin, 100 μg/ml streptomycin and 380 μg/ml gentamicin sulfate (G418) at 37° C. under 5% CO2 in air. The Hep G2 parental cells were grown under identical conditions in MEM with Earle's salts without G418.
(§2) Hep G2.2.15 cells (190 μl) were seeded onto microtiter plates at a concentration of 20×10^4 cells/ml. The cells incubated overnight in medium without G418 after which the compound compositions (10 μl) were added. Five 2-fold serial dilutions of extracts or fractions were tested starting at 200 μg/ml final culture concentration. PBS and 3TC (lamivudine) were included as the negative and positive controls, respectively. The treated cells were incubated at 37° C. for 4 days, after which the hepatitis B surface antigen (HBsAg) production in culture supernatants was assayed. The HBsAg released into the culture medium in the presence or absence of test samples was assayed using the BIO-RAD Genetic Systems HBsAg EIA 3.0 kit (Bio-Rad, Redmond, Wash.). This enzyme immunoassay is based on the capture of HBsAg on monoclonal antibody-coated plates. Four- and twelve-fold dilutions of all culture supernatants collected were assayed in triplicate wells of the EIA plate. The percentage inhibition of HBsAg secretion in the presence of the plant samples was calculated against the negative control (PBS).

[5] = tested on: HCV/HIV pseudovirions; test: microbe, parasite or virus in culture; format: cell-based, hepatitis C virus; conditions: for inhibition of HCV/HIV entry: 100 μg/mL
[6] = tested on: VSVG/HIV pseudovirions; test: VSVG/HIV pseudoviral entry into HUH7 cells; format: cell-based, vesicular stomtatis virus; conditions: 100 μg/mL, FIG. 3
[7] = tested on: Ebola; format: cell-based; conditions: 50 mg·mL; FIG. 4
[8] = tested on: HBV DNA; test: Anti-HBV DNA Assay; format: cell-based, hepatitis B virus; conditions: for HBV DNA copies/ml: replicates, listed as HP-S2
[9] = tested on: Hep G2.2.15 cells; test: % Cell Viability in Anti-HBSAg Assay (Procedure A); format: cell-based, human; conditions: 50 μg/ml
Procedure: as §1, §2

[10] = tested on: HIV; test: anti-HIV HOG.R5 assay; format: cell-based; conditions: 20 mcg/ml
[11] = tested on: influenza; test: influenza virus entry assay; format: cell-based; set-up: dose or concentration left out as unconfirmed; conditions: FIG. 4

COC(=O)C1=COC(O)C2C1C(O)C(O)C2(C)O (mixture of isomers) [lamiridosin]
activity against Marburg virus entry [1]: inactive | Estimated IC50 (inhibition of HCV JFH1 infectivity) [2]: 20 µg/mL | Toxicity to Hep G2 2.2.15 cells (Table 2) ([3]; 75 μg/mL): Toxic | Toxicity to Hep G2 2.2.15 cells (Table 2) ([3]; 150 μg/mL): Toxic | cytotoxicity to the Hep G2 2.2.15 cells ([3]; at doses greater than 50 μg/ml): non-cytotoxic | % Control HBSAg [4]: 100% | % Inhibition [4]: 0% | anti-HBSAg assay activity (in words) ([4]; Table 1): inactive | Exp2 (% Inhib) ([5]; 1 ug/mL): 56.6% | Trial 1 (% Inhib) ([5]; 1 ug/mL): 70.1% | Exp2 (% Inhib) ([5]; 5 ug/mL): 68.4% | Trial 1 (% Inhib) ([5]; 5 ug/mL): 81.2% | Exp2 (% Inhib) ([5]; 10 ug/mL): 81.8% | Trial 1 (% Inhib) ([5]; 10 ug/mL): 86.8% | Exp2 (% Inhib) ([5]; 50 ug/mL): 96.7% | Trial 1 (% Inhib) ([5]; 50 ug/mL): 96.1% | Exp2 (% Inhib) ([5]; 100 ug/mL): 99.5% | Trial 1 (% Inhib) ([5]; 100 ug/mL): 99.5% | inhibition of HCV/HIV entry ([5]; FIG. 1): approximately 80% | inhibition of HCV/HIV entry ([5]; FIG. 1, listed as Lamiridosin): ca. 85% | anti-hepatitis C virus activity (in words) ([5]; FIG. 1): did block HCV viral entry | IC50 in the anti-HCV assay (HCV viral entry) ([5]; FIG. 2): 0.6 µg/mL | IC50 ([5]; FIG. 2, read-out: IC50 in the anti-HCV assay (HCV viral entry)): 2310 nM | Imax in the anti-HCV assay ([5]; FIG. 2 fit): 93.9±3.5% | VSVG/HIV pseudoviral entry blocking [6]: does not block | activity against Ebola virus entry [7]: inactive | HBV DNA Average ([8]; 9.37 μg/ml): 9.81 × 10^5 copies/ml | HBV DNA Inhibit ([8]; 9.37 μg/ml): 0.00% | HBV DNA copies/ml ([8]; 9.37 μg/ml): 1.12E+6 copies/ml and 1.01E+06 copies/ml and 1.22E+06 copies/ml | HBV DNA Average ([8]; 18.75 μg/ml): 8.90 × 10^5 copies/ml | HBV DNA Inhibit ([8]; 18.75 μg/ml): 23.90% | HBV DNA copies/ml ([8]; 18.75 μg/ml): 8.22E+05 copies/ml and 8.73E+05 copies/ml and 9.76E+05 copies/ml | HBV DNA Average ([8]; 37.5 μg/ml): 6.49 × 10^5 copies/ml | HBV DNA Inhibit ([8]; 37.5 μg/ml): 44.5% | HBV DNA copies/ml ([8]; 37.5 μg/ml): 5.06E+05 copies/ml and 8.57E+05 copies/ml and 5.85E+05 copies/ml | % Cell Viability [9]: 100% | activity against HIV (HOG.R5 assay) [10]: inactive | activity against influenza virus entry [11]: inactive
